Experimental data reported in PMC11098465, “A comparative analysis of peptide-delivered antisense antibiotics using diverse nucleotide mimics” (RNA, 2024).

Legend:
[1] = test system: Salmonella outer membrane; experiment: Outer membrane permeabilization (NPN fluorescence); type: cell-based, Salmonella enterica serovar Typhimurium strain SL1344; parameters: key to Outer membrane permeation: +++: Effect strength is represented by additional (+) signs.; ++: Effect strength is represented by additional (+) signs.; Effect strength is represented by additional (+) signs; conditions: for Outer membrane permeation: ASO conjugated to the carrier peptide, 10 µM, NPN fluorescence, summary grade; for Outer membrane permeabilization, NPN fluorescence (in words): KFF-ASOs 10 µM, CTAB 10 µM, PMXB 0.4 µM, added after 14 min
Source text: Because the negASOs are ineffective in bacterial cells despite their activity in cell-free systems, we investigated if these ASOs affected the ability of the KFF carrier peptide to induce OM permeabilization. Therefore, we used the hydrophobic fluorophore N-phenylnaphthylamine (NPN), a dye that turns fluorescent after binding to hydrophobic regions within cell membranes. This only occurs in cells with a compromised OM ([Ghosh et al. 2016]; [Ellis et al. 2019]). […] However, when conjugated to negASOs, the KFF carrier is unable to permeabilize the OM (Fig. 10). This could potentially be due to electrostatic interactions between the negASOs and the positively charged KFF.
The experiments were performed by modifying previously published protocols ([Ghosh et al. 2016]; [Ellis et al. 2019]; [Zheng et al. 2021]). Salmonella (WT SL1344, JVS-1574) were grown overnight in 4 mL MHB medium at 37°C (with shaking at 220 rpm). Then the culture was diluted 1:100 and grown until OD600 0.5 (∼2 × 10^8 cfu/mL). This culture was harvested and washed two times with 5 mM HEPES and further diluted to OD600 0.2 in 5 mM HEPES supplemented with 5 mM Glucose (pH 7.2). These cells were then incubated with NPN (Sigma) at a final concentration of 10 µM. One hundred and ninety microliters of NPN-treated cells were transferred into 96-well back plates with transparent bottoms and fluorescence (excitation = 350 nm, emission = 420 nm) was recorded for 60 min (reading was performed every minute) using a Synergy H1 plate reader (Biotek). On the 14th minute, 10 µL of the test compounds (10 µM final concentration) was added into the wells. CTAB (Sigma) 10 µM (final concentration) or PMXB (Sigma) (final concentration of 0.4 µM) were used as positive controls, while water was used as negative control. The fluorescence of the wells was monitored using the same settings as above. The plots were created using OrginPro 2023. The experiment was performed twice and Figure 10 is a representative example of two independent experiments.

[2] = test system: acpP mRNA; experiment: RNA-seq of KFF-ASO-treated Salmonella (acpP mRNA depletion); type: cell-based, Salmonella enterica serovar Typhimurium strain SL1344; parameters: key to acpP depletion (RNA-seq): +++: Effect strength is represented by additional (+) signs.; ++: Effect strength is represented by additional (+) signs.; Effect strength is represented by additional (+) signs; conditions: 15 min; for acpP depletion (RNA-seq): ASO conjugated to the carrier peptide, 5 µM, summary grade
Method: To assay bacterial responses to the different ASO modalities and to determine target mRNA depletion in cellulo, we performed RNA-seq analysis of Salmonella challenged with 5 µM KFF-ASO conjugates for 15 min. We first evaluated two individual RNA-seq experiments by principal component analysis (PCA) and observed three distinct clusters (Fig. 5). The PCA cluster 1 grouped the water control, RNA-MOE, RNA-OMe, and the PNA-treated conditions. […] Cluster 2 grouped the other negASOs. As we have previously observed for KFF peptide exposure ([Popella et al. 2021], [2022]), these treatments led to the activation of a cationic antimicrobial peptide (CAMP) response, including induction of the PhoP/Q and PmrA/B regulons involved in remodeling LPS, and the CpxR regulon that responds to envelope stress (Fig. 7). […] These treatments also led to the down-regulation of genes responsible for the destruction of superoxide anion radicals (sodB) and those involved in manganese efflux (yebN) (Figs. 6 and 7). Finally, cluster 3 grouped samples of the unconjugated peptides and the PMO treatment. Similarly to cluster 2, these activated a strong CAMP response (Fig. 7).
RNA isolation was performed using previously published protocols ([Popella et al. 2021], [2022]). Bacterial overnight cultures were diluted 1:100 in fresh MHB and grown to OD600 0.5. The cultures were diluted to ∼10^6 cfu/mL in noncation-adjusted MHB. […]
Total RNA was purified from bacterial pellets using the miRNeasy Mini kit (Qiagen) according to protocol #3 described in [Popella et al. (2021]). […] RNA concentration was measured with a NanoDrop spectrophotometer.
For transcriptomic analyses, RNA samples were processed and subjected to RNA-seq at the Core Unit SysMed (University of Würzburg). […] Sequencing of pooled libraries, spiked with 5% PhiX control library, was performed at 10 million reads/sample in single-end mode with 75 nt read length on the NextSeq 500 platform (Illumina) using High output sequencing kits. […]

| Substance | Outer membrane permeation [1] | Outer membrane permeabilization, NPN fluorescence (in words) [1] | acpP mRNA levels after treatment (in words) ([2]; 5 µM KFF-ASO conjugates, RNA-seq) | acpP depletion (RNA-seq) [2] |
| --- | --- | --- | --- | --- |
| PNA: peptide nucleic acid 10mer ASO, sequence CTCATACTCT, targeting acpP −5 to +5 (all peptide nucleic acid (PNA)) | ++ | this ability is retained upon conjugation | reduces the levels of acpP mRNA | ++ |
| PMO: phosphorodiamidate morpholino 10mer ASO, sequence CTCATACTCT, targeting acpP −5 to +5 (all phosphorodiamidate morpholino (PMO)) | ++ | this ability is retained upon conjugation |  | + |
